Data published in PMC12305494, “Discovery of PXR Antagonist MI891 and PXR Degrader MI1013 and Their Roles in Hepatic Gene Regulation” (Journal of Medicinal Chemistry, 2025).

Legend:
PPARα = PPARα (Homo sapiens, UniProt Q07869); assay: PPARα luciferase reporter assay, agonistic and antagonistic setups; format: cell-based; settings: prototype ligand fenofibrate
Experimental: For the farnesoid X receptor (FXR) luciferase gene reporter assay, the full-length expression vector was paired with pFXRE-luc luciferase construct. The p1A1-luc construct was used in the aryl hydrocarbon receptor (AhR) assays with pRL-TK for normalization. Gal4-LXR-α/β, and Gal4-PPAR-γ constructs were used with the pGAL4 UAS-luc construct. For the VDR assay, expression vector pSG5-hVDR together with pVDRE-luc constructs was used. Firefly and Renilla luciferase activities were analyzed using a Dual reporter assay (Promega). For the nuclear receptor assays, prototype ligands were used at the following concentrations: Calcitriol for VDR (100 nM), GW3965 for LXRα and LXRβ (10 μM), 6-OCA for FXR (1 μM), fenofibrate for PPARα (10 μM), estradiol for ERα and β (10 μM), rosiglitazone for PPARγ (10 μM), 3-MC for AhR (5 μM), and TCPOBOP for mCAR (10 μM). Detailed descriptions and protocols are detailed in our recent publication. ,

[1] = tested on: primary human hepatocytes; assay: RT-qPCR gene expression in primary human hepatocytes; format: cell-based; settings: PHH, MI891 5 μM
Experimental: Cryopreserved human hepatocytes from three donors were purchased from BioIVT (Westbury, New York, USA). The characteristics of the donors were as follows: donor 1, donor 2, donor 3 - person. PHHs were seeded in PHH medium supplemented with 10% fetal bovine serum at a density of 350,000 cells per well of rat tail collagen type I-coated 24-well plates (catalog number 354408, Corning, New York, USA). Cultivation medium was replaced with serum-free PHH medium 2 h later. […] Rifampicin, SPA70, and dimethyl sulfoxide (DMSO) were all purchased from Sigma-Aldrich (St. Louis, Missouri, USA, now part of Merck).
RT-qPCR was utilized to investigate gene expression in HepaRG and PHH. Total RNA was extracted from these cells using the phenol–chloroform method. The concentration of the isolated RNA was then measured using a Nanodrop 1000 spectro-photometer (Thermo Fisher Scientific).
Following RNA isolation, reverse transcription was performed to convert RNA into complementary DNA (cDNA). This step was carried out using the High-capacity cDNA reverse transcription kit (Cat. No. 4374966, ThermoFisher Scientific). The resulting cDNA served as the template for subsequent qPCR reactions.
The qPCR reactions were conducted on the QuantStudio 6 Flex Real-Time PCR System (ThermoFisher Scientific, Waltham, Mas-sachusetts). For these reactions, TaqMan Universal master mix II (Cat. No. 4440047, ThermoFisher Scientific) and TaqMan assays (FAM) utilized in this study are detailed in the Supporting Information. To quantify gene expression, the cycle threshold (Ct) values of the target genes were normalized to the Ct values of reference genes HPRT1 or GAPDH (HepaRG) or TBP (PHH). The normalized values were then expressed as fold changes (2−ΔΔCt) relative to the DMSO control at the specified time points, with the control set as 1.

RXRα = assay: Western blot of RXRα in HepaRG cells; format: cell-based, human; settings: 24 h
Experimental: The harvested HepaRG cells were lysed in RIPA lysis buffer (Cat. no 89900, Thermo Scientific) containing Halt protease inhibitor cocktail inhibitors (Thermo Scientific). Protein concentration was measured using the Pierce BCA Protein Assay Kit (Cat. no. 23225, Thermo Scientific), samples were diluted in 4 × Laemmli sample buffer (Cat. no. 1610747, BioRad) supplemented with mercaptoethanol and heated at 95 °C for 5 min. Equal amounts of protein were loaded in 4–20% Mini-PROTEAN TGX Stain-Free Protein Gels (12 well. cat. no. 4561095 or 15 well, cat. no. 4568096, Bio-Rad), electrophorised, and transferred onto Trans-Blot Turbo Midi-size PVDF Membrane (cat. no. 1704273, Bio-Rad), and blocked with EveryBlot Blocking buffer for 10 min (cat. no. 12010020, Bio-Rad). […] Chemiluminescence signals were detected using SuperSignal West Femto Maximum Sensitivity Substrate (cat. no. 34096, Thermo Scientific) and visualized by the ChemiDoc MP Imaging system (Universal Hood III, #731BR02821, Bio-Rad), and the bands were quantified using β-actin (1:2000, recombinant rabbit conjugated monoclonal antibody (JF53-10), cat. no. MA5-32540, Invitrogen) as loading control with ImageJ (version 1.54g) software.

PXR = target: T1, PXR (Homo sapiens, UniProt O75469+Q96SW2); assay: Western blot of PXR in differentiated HepaRG cells; format: cell-based
T1 construct: differentiated hepatic HepaRG cells, which naturally express high PXR activity and expression; endogenous in cells; host or cells: differentiated HepaRG
T1 sequence (O75469 whole entry): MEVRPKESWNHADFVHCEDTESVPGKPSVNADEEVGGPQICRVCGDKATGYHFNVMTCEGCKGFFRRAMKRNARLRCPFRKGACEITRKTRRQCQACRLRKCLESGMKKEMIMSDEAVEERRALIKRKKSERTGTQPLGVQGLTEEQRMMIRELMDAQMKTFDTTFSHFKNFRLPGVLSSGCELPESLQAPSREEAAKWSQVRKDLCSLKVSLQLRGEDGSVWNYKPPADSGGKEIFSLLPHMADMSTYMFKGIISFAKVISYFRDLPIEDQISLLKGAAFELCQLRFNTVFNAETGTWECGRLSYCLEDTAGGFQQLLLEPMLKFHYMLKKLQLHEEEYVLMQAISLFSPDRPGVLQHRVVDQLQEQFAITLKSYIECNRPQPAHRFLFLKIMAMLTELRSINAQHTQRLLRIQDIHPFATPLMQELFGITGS
T1 sequence (Q96SW2 whole entry): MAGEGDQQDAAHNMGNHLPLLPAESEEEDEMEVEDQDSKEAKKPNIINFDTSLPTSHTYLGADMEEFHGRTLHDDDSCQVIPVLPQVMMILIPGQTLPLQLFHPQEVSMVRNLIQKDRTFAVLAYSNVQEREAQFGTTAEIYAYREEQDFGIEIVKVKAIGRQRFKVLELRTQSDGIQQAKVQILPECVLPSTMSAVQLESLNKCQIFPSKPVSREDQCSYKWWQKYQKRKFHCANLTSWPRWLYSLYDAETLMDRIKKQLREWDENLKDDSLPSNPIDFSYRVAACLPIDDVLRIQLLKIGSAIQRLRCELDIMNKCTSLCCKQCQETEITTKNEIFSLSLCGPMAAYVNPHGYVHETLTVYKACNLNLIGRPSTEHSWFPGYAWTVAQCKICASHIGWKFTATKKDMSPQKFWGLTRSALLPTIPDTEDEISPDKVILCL
Experimental: The harvested HepaRG cells were lysed in RIPA lysis buffer (Cat. no 89900, Thermo Scientific) containing Halt protease inhibitor cocktail inhibitors (Thermo Scientific). Protein concentration was measured using the Pierce BCA Protein Assay Kit (Cat. no. 23225, Thermo Scientific), samples were diluted in 4 × Laemmli sample buffer (Cat. no. 1610747, BioRad) supplemented with mercaptoethanol and heated at 95 °C for 5 min. Equal amounts of protein were loaded in 4–20% Mini-PROTEAN TGX Stain-Free Protein Gels (12 well. cat. no. 4561095 or 15 well, cat. no. 4568096, Bio-Rad), electrophorised, and transferred onto Trans-Blot Turbo Midi-size PVDF Membrane (cat. no. 1704273, Bio-Rad), and blocked with EveryBlot Blocking buffer for 10 min (cat. no. 12010020, Bio-Rad). The membranes were incubated overnight at 4 °C with the following antibodies: PXR polyclonal antibody (1:500, PA5–41170, Invitrogen), RXRA polyclonal antibody (1:1000, 21218–1-AP, Proteintech), and GSPT1 polyclonal antibody (1:1000, 10763-a-AP, Proteintech), washed with TBS-T for 3 times, and followed by incubation with goat antirabbit IgG (H + L) Secondary antibody, HRP (1:200, 000, 1 h, cat. no. 31460, Invitrogen). Chemiluminescence signals were detected using SuperSignal West Femto Maximum Sensitivity Substrate (cat. no. 34096, Thermo Scientific) and visualized by the ChemiDoc MP Imaging system (Universal Hood III, #731BR02821, Bio-Rad), and the bands were quantified using β-actin (1:2000, recombinant rabbit conjugated monoclonal antibody (JF53-10), cat. no. MA5-32540, Invitrogen) as loading control with ImageJ (version 1.54g) software.

Chain of PPARα (Q07869 whole entry, the tested form may be a part): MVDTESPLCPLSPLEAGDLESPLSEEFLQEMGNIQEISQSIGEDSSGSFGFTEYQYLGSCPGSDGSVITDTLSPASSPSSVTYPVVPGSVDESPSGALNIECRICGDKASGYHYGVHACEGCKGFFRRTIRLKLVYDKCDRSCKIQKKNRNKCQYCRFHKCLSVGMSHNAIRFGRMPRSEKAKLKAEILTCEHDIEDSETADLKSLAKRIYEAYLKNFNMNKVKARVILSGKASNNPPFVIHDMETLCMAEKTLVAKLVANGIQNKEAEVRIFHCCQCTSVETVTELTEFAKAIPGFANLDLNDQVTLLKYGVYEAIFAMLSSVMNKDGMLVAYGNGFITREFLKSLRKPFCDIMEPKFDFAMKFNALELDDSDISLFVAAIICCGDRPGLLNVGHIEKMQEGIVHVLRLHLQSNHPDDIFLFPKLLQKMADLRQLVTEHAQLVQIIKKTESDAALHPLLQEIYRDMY

CYP7A1, HMGCS2, PCK1 and MKI67 mRNA ([1]; in the presence and absence of rifampicin) | CYP2B6 mRNA ([1]; all donors) | PXR degradation (Western blot) (PXR; 24 h) | PXR degradation Dmax (PXR; 24 h, Western blot) [%] | DC50 (PXR; 24 h, Western blot, read-out: PXR degradation DC50) [nM] | Compound | agonistic or antagonistic activity on PPARα (PPARα) | CYP3A4 mRNA expression ([1]; three donors, rifampicin 10 μM, 48 h) | RXRα degradation (RXRα) | PXR degradation, time course (PXR; 2 μM, reversal of PXR expression after 72 h)
significant downregulation | may slightly upregulate | – | – | – | NC(=O)c1cc(Cn2cc(-c3c(-c4ccc(Cl)cc4)nc4c(F)cc(F)cn34)nn2)ccc1Cl [Compound 11, 2-Chloro-5-((4-(2-(4-chlorophenyl)-6,8-difluoroimidazo[1,2-a]pyridin-3-yl)-1H-1,2,3-triazol-1-yl)methyl)-benzamide] | no significant agonistic or antagonistic activities | suppressed the expression of CYP3A4 mRNA and attenuated its induction by rifampicin | – | –
– | – | selectively degrades PXR | 82 | 89 | N-(4-((1-(2,5-dimethoxyphenyl)-5-methyl-1H-1,2,3-triazol-4-yl)sulfonyl)phenyl)-3-(2-(2-(2-(4-(((2-(2,6-dioxopiperidin-3-yl)-1,3-dioxoisoindolin-4-yl)amino)methyl)-1H-1,2,3-triazol-1-yl)ethoxy)ethoxy)ethoxy)propenamide [Compound 36] | – | – | does not degrade | significant degradation of PXR after 12 h
